Measured values: US7560591B2, “Benzamidine derivatives having anti-inflammatory and immunosuppressive activity” (Rotta Research Laboratorium S.p.A., priority 2001, dated 2009)
Where two headings read alike, the source gives them in different places.

Experiments:
formation of PGE2 = assay: Inhibition of PGE2 formation in rabbit joint chondrocytes stimulated by IL-1β (RIA); assay type: cell-based; details: IL-1β 1 ng/ml, 48 hours
Description: (§1) a) The activity in inhibiting the formation of NO, measured as NO2^− (nitrites), PGE2, and neutral protease, was investigated in vitro on culture broths of rabbit joint chondrocytes stimulated by cytokine IL-1β (1 ng/ml) for 48 hours. For the preparation of the chondrocytes, the method described by Berenbaum et al [FEBS Letters 340, 51-55 (1994)] was followed. Briefly, fragments of cartilage removed under sterile conditions from the heads of rabbit shoulder, hip and knee joints were chopped finely and digested at 37° C. by hyaluronidase, trypsin and collagenase solutions, giving rise, after filtration on sterile gauze and centrifuging at 600×g and suitable dilution with 10% DMEM-FCS, to a concentration of approximately 1×10^5 cells per well. The cells were kept in these conditions until confluence (about 15 days), the broth being changed every 3 days. At this point, the products under test, dissolved in the medium, were added to each test sample and, after 20 minutes, 350 μl IL-1β was added in order to have a final concentration of 1 ng/ml. The duration of the stimulation was 48 hours at 37° C. (incubation air-CO2 7%). Measurement of the nitrites, as described by Green et al. [Anal. Biochem. 126, 131-138 (1982)], and of the PGE2s by RIA measurement, was then performed on the cell supernatant fluid. The measurement of the neutral proteases was performed in the cell supernatant fluid containing the p-aminophenyl mercury acetate (APMA) activator with the use of azocoll as the substrate and with incubation at 37° C. for 17 h as described by Chavira et al. [Anal. Biochem. 136, 446-450 (1984)]. In order to evaluate the direct inhibitory effect of the compounds under test on the hydrolytic activity of the cell supernatant fluid, they were added to the supernatant fluid containing the proteases induced by IL-1β and already activated by AMPA.
(§2) The results obtained are shown in Table 3, in which the IC50, that is, the concentration (micromolar) of antagonist which can inhibit the formation of nitrites, PGE2s, and neutral proteases, respectively, by 50% relative to the control group, that is, to the cells stimulated with IL-1β but without the addition of antagonists, is given for some of the compounds of the invention already given by way of example in Table 2.

[1] = system: neutral proteases (metalloproteases); assay: Inhibition of neutral proteases (metalloproteases) in supernatant of IL-1β-stimulated rabbit joint chondrocytes, azocoll substrate; assay type: biochemical; details: IL-1β 1 ng/ml, 48 hours, APMA-activated supernatant, read-out: MP (metalloproteases) IC50
Description: as §1, §2

[2] = system: formation of NO, measured as NO2− (nitrites); assay: Inhibition of NO (nitrite) formation in rabbit joint chondrocytes stimulated by IL-1β; assay type: cell-based; details: IL-1β 1 ng/ml, 48 hours, NO determined as nitrites
Description: as §1, §2

[3] = system: extravasation in the ears of mice; assay: Extravasation (Evans Blu) induced by phlogogenic agents in the ears of mice; assay type: in vivo
Description: b) Some of the compounds of the invention, such as compounds I-4, I-11 and I-31, were evaluated in vivo in a series of experimental extravasation models in which 5 μl of the preselected phlogogenic agent dissolved in physiological solution was injected intradermally into the ears of mice as described by Erdo et al., with slight modifications [Agents and Actions 39, 137-142 (1993)].
The products under test were administered orally 1 hour before the challenge and, 30 minutes before the challenge, the dye Evans Blu was injected intravenously in a dose of 100 mg/kg. The animals were killed at a time predetermined according to the test, 30 min.—2 hours after the challenge. The extravasation was evaluated by determining the quantity of dye present in the ear, extracted after homogenisation of the tissue in 2 ml of formamide and incubation at 50° C. for 2 hours. After centrifuging, the amount of dye was determined by measuring the absorption at 620 nm. The maximum % effect (% MPE) was calculated by the following formula:
[formula] in which EV is the mean absorption observed in the group of animals treated solely with the phlogogenic agent, ED is the group treated with the phlogogenic agent and the drug, and EB is the base value, that is, the value for the animals injected with physiological solution alone.
The phlogogenic agents used were:
Arachidonic acid (dissolved in EtOH); (1 mg/mouse; killed+30 min); histamine (3 nmoli/mouse; killed+30 min); PAF (30 pmoli/mouse; killed+60 min); Zymosan (10 μg/mouse; killed+120 min); bradykinin (0.6 nmoli/mouse; killed+30 min).

[4] = system: colitis induced by TNBS in rats; assay: Colitis induced by TNBS in rats; assay type: in vivo, rat; details: for Weight of the colon: 48 hours after TNBS; for Weight of the colon / Myeloperoxidase activity / iNOS activity / Macroscopic damage (MDS): mean ± SD; for Myeloperoxidase activity / iNOS activity: colon tissue; for Macroscopic damage (MDS): score 0-10
Excerpt: The combined capability of some of the compounds of the invention to inhibit both iNOS and the synthesis of TNFα has led to their activity being checked in an experimental model of colitis caused by a chemical hapten, trinitrobenzene-sulphonic acid (TNBS), which can bind to the tissue proteins and stimulate cell-mediated immunity. The intrarectal administration of TNBS in association with ethanol causes acute inflammation characterised by extensive ulceration and necrosis.
A distal colitis was therefore induced in the rat by intrarectal instillation of TNBS (40 mg/kg) dissolved in 50% ethanol (0.5 ml/rat). The drugs were administered orally twice a day on days −2; −1; 0; +1 and the animals were killed 48 hours after the administration of TNBS.
The parameters examined were: total weight of the colon (g), macroscopic tissue damage “score”, measurement of the tissue myeloperoxidase (MPO) activity, which is a marker of the infiltration of the neutrophiles, and measurement of the iNOS activity (pmoles/g tissue/min.).
The macroscopic score (MDS) was taken on about 10 cm of colon in accordance with the following arbitrary scale:
The tissue MPO measurement was performed according to Velgara et al., JPET 1994. The measurement of the tissue nitrites was performed by applying the method described above for the chondrocytes to the supernatant fluid of the tissue homogenate.
Compound I-4, administered in doses of 5, 10 and 20 mg/kg, and compound I-11 were examined, by administering them orally, in comparison with sulphasalazine (250 mg/kg) and 5-aminosalicylic acid (5-ASA) (100 mg/kg), 2 drugs which are widely used in the treatment of ulcerative colitis.

[5] = OS, mouse ear, PAF, read-out: ED50, extravasation induced by PAF
[6] = Oryctolagus cuniculus, Chondrocyte
[7] = 250 mg/kg, non-statistically significant

Row | IC50 (formation of PGE2) [µM] | IC50 [1] [µM] | IC50 [2] [µM] | Compound | further results
1 | 6.6 | 6.6 |  | CC(=N)Nc1ccc(NC(=S)NCCc2c(F)cccc2F)cc1 [Compound I-18] | 
2 |  | 13.3 |  | CC(=N)Nc1ccc(NC(=S)NCc2ccccn2)cc1 [Compound I-19] | 
3 |  |  | 100 | CCCCCC(=O)Nc1ccc(NC(C)=N)cc1 [Compound I-23] | 
4 |  |  |  | CS(=O)(=O)Nc1ccc([N+](=O)[O-])cc1Oc1ccccc1 [Nimesulide, reference compound] | ED50 [3, 5]: > 40 mg/kg; ED50 ([3]; OS, mouse ear, arachidonic acid, read-out: ED50, extravasation induced by AA (arachidonic acid)): 41 mg/kg; times less active than Compound I-4 ([3]; antagonising AA): 2 times
5 |  |  | 10 | CC(=N)Nc1ccc(NC(=O)Cc2c[nH]c3ccccc23)cc1 [Compound I-27] | 
6 | 250 | 13.3 | 190 | CCCCNC(=S)Nc1ccc(NC(C)=N)cc1 [Compound I-3] | 
7 |  | 30 |  | CNC(=S)Nc1ccc(NC(C)=N)cc1 [Compound I-1] | 
8 |  | 30 |  | CCCNC(=S)Nc1ccc(NC(C)=N)cc1 [Compound I-2] | IC50 [2, 6]: > 300 µM; IC50 (formation of PGE2; [6]): > 300 µM; melting point: 188.1 to 189.1 °C
9 | 16.6 | 30 | 110 | CC(=N)Nc1ccc(NC(=S)NC2CCCCC2)cc1 [Compound I-11] | activity in TNBS colitis (in words) ([4]; 20 mg/kg): active; Weight of the colon ([4]; 20 mg/kg orally twice a day): 2.2 ± 0.3 g; Myeloperoxidase activity ([4]; 20 mg/kg orally twice a day): 6.5 ± 1.8 UMPO/g/min; iNOS activity ([4]; 20 mg/kg orally twice a day): 90.6 ± 45.6 pmol/g/min; Macroscopic damage (MDS) ([4]; 20 mg/kg orally twice a day): 4.3 ± 0.9(*)
10 |  |  |  | O=C(O)c1cc(/N=N/c2ccc(S(=O)(=O)Nc3ccccn3)cc2)ccc1O [Sulphasalazine, sulphasalazine, reference compound] | Weight of the colon ([4]; 250 mg/kg orally twice a day): 2.5 ± 0.3 g; Myeloperoxidase activity ([4]; 250 mg/kg orally twice a day): 7.5 ± 5.5 UMPO/g/min; iNOS activity ([4]; 250 mg/kg orally twice a day): 100.8 ± 86.8 pmol/g/min; Macroscopic damage (MDS) ([4]; 250 mg/kg orally twice a day): 6.0 ± 2.9; effect on iNOS activity [4, 7]: about 50%; effect on macroscopic damage [4, 7]: about 20%
11 | 10 | 10 | 10 | CC(=N)Nc1ccc(NC(=S)NCCc2ccc(Cl)cc2)cc1 [Compound I-17] | 
12 | 33 | 6.6 | 100 | CC(=N)Nc1ccc(NC(=S)NCCc2ccccc2)cc1 [Compound I-14] | 
13 |  |  |  | Nc1ccc(O)c(C(=O)O)c1 [Compound 5-ASA, 5-aminosalicylic acid, reference compound] | activity on all of the parameters (in words) ([4]; 100 mg/kg): inactive; Weight of the colon ([4]; 100 mg/kg orally twice a day): 2.4 ± 0.4 g; Myeloperoxidase activity ([4]; 100 mg/kg orally twice a day): 7.9 ± 2.3 UMPO/g/min; iNOS activity ([4]; 100 mg/kg orally twice a day): 167.3 ± 106.5 pmol/g/min; Macroscopic damage (MDS) ([4]; 100 mg/kg orally twice a day): 6.9 ± 1.1
14 | 300 |  |  | CC(=N)Nc1cccc(NC(=S)NC2CCCCC2)c1 [Compound I-32] | 
15 |  |  | 66.6 | CC(=N)Nc1ccc(NC(=S)Nc2ncc(C)s2)cc1 [Compound I-21] | 
16 | 26.6 | 6.6 | 13.3 | CC(=N)Nc1ccc(NC(=S)NCCc2ccc(F)cc2)cc1 [Compound I-16] | 
17 | 10 | 3.3 | 10 | CCCCCCNC(=S)Nc1ccc(NC(C)=N)cc1 [Compound I-5] | 
18 | 13.3 | 100 |  | CCC(=N)Nc1ccc(NC(=S)NC2CCCCC2)cc1 [Compound I-12] | 
19 |  | 20 |  | CCCCCCCNC(=S)Nc1ccc(NC(C)=N)cc1 [Compound I-6] | IC50 [2, 6]: 30 µM; IC50 (formation of PGE2; [6]): 20 µM; melting point: 177.8 to 178.4 °C
20 | 6.6 | 13.3 | 3.3 | CC(=N)Nc1ccc(NC(=S)NCCC(C)C)cc1 [Compound I-7] | 
21 |  |  |  | CN1C(C(=O)Nc2ccccn2)=C(O)c2ccccc2S1(=O)=O [Piroxicam, reference compound] | ED50 [3, 5]: 21.2 mg/kg; ED50 ([3]; OS, mouse ear, Zymosan, read-out: ED50, extravasation induced by Zymosan): 6.1 mg/kg
22 | 16.6 | 6.6 | 16.6 | CC(=N)Nc1ccc(NC(=S)NCCc2ccccn2)cc1 [Compound I-20] | 
23 | 6.6 | 25 | 25 | CC(=N)Nc1ccc(NC(=O)NC2CCCCC2)cc1 [Compound I-29] | 
24 | 16.6 |  |  | CC(=N)Nc1ccc(NC(=O)C23CC4CC(CC(C4)C2)C3)cc1 [Compound I-25] | 
25 | 10 | 6.6 | 100 | CC(=N)Nc1ccc(NC(=S)Nc2ccccc2)cc1 [Compound I-13] | 
26 | 16.6 | 6.6 | 33 | CC(=N)Nc1ccc(NC(=S)NCCCc2ccccc2)cc1 [Compound I-15] | 
27 | 100 |  |  | CC(=N)Nc1ccc(NC(=O)c2cc3ccccc3n2C)cc1 [Compound I-28] | 
28 | 33.3 |  | 33.3 | CC(=N)Nc1ccc(NC(=O)C2CCCCC2)cc1 [Compound I-24] | 

Row | Compound | IC50 (formation of PGE2) [µM] | IC50 [1] [µM] | IC50 [2] [µM] | further results
29 | N=C(Nc1ccc(NC(=S)NC2CCCCC2)cc1)N[N+](=O)[O-] [Compound I-31] | 30 | 6.6 | 46.6 | ED50, extravasation induced by PAF ([3]; OS, mouse ear, PAF): 10.8 mg/kg; ED50, extravasation induced by Zymosan ([3]; OS, mouse ear, Zymosan): 10.5 mg/kg; ED50, extravasation induced by AA (arachidonic acid) ([3]; OS, mouse ear, arachidonic acid): 30.5 mg/kg
30 | N=C(N)Nc1ccc(NC(=S)NC2CCCCC2)cc1 [Compound I-30, 1-guanidinophenyl-4-cyclohexyl Thiourea] | 10 | 13.3 | 6.6 | 
